Experimental data: ChEMBL document CHEMBL1141831, “Alertenone, a dimer of suberosenone from Alertigorgia sp” (J Nat Prod, 1999)
Values after ≈ are worked out from the molar mass of the structure shown.

How the values were obtained:
SNB-19 = test: Cytotoxicity against human SNB-19 cells after 2 days by XTT assay; type: functional, cell-based; details: SNB-19, 48 h
U-251 = test: Antitumor activity against human U251 cells xenografted in mouse assessed as cell growth at 40 mg/kg by hollow-fiber assay relative to control; type: functional
[1] = Cytotoxicity against human LOX cells after 2 days by XTT assay; type: functional, cell-based; details: 48 h
MCF7 = test: Cytotoxicity against human MCF7 cells after 2 days by XTT assay; type: functional, cell-based; details: MCF7, 48 h
OVCAR-3 = test: Cytotoxicity against human OVCAR-3 cells after 2 days by XTT assay; type: functional, cell-based; details: OVCAR-3, 48 h
A549 = test: Cytotoxicity against human A549 cells after 2 days by XTT assay; type: functional, cell-based; details: A549, 48 h
Malme-3M = test: Cytotoxicity against human MALME-3M cells after 2 days by XTT assay; type: functional, cell-based; details: 48 h
M14 = test: Cytotoxicity against human M14 cells after 2 days by XTT assay; type: functional, cell-based; details: M14, 48 h
NCI-H522 = test: Antitumor activity against human NCI-H522 cells xenografted in mouse assessed as cell growth at 40 mg/kg by hollow-fiber assay relative to control; type: functional
SF-539 = test: Cytotoxicity against human SF-539 cells after 2 days by XTT assay; type: functional, cell-based; details: SF-539, 48 h
SF-295 = test: Cytotoxicity against human SF-295 cells after 2 days by XTT assay; type: functional, cell-based; details: SF-295, 48 h
HOP-92 = test: Cytotoxicity against human HOP-92 cells after 2 days by XTT assay; type: functional, cell-based; details: HOP-92, 48 h

SMILES	IC50 (SNB-19) [µg/mL]	Activity (U-251) [%]	IC50 [1] [µg/mL]	IC50 (MCF7) [µg/mL]	IC50 (OVCAR-3) [µg/mL]	IC50 (A549) [µg/mL]	IC50 (Malme-3M) [µg/mL]	IC50 (M14) [µg/mL]	Activity (NCI-H522) [%]	IC50 (SF-539) [µg/mL]	IC50 (SF-295) [µg/mL]	IC50 (HOP-92) [µg/mL]
C=C1C(=O)C[C@H]2[C@@H]3CC[C@H](C)[C@]12CC3(C)C [SUBEROSENONE]	0.006 (≈ 0.0275 µM)	10	0.006 (≈ 0.0275 µM)	0.43 (≈ 1.97 µM)	0.02 (≈ 0.0916 µM)	1.63 (≈ 7.47 µM)	0.008 (≈ 0.0366 µM)	0.01 (≈ 0.0458 µM)	10	0.002 (≈ 0.00916 µM)	0.03 (≈ 0.137 µM)	0.11 (≈ 0.504 µM)
C=C1C(=O)[C@H](C[C@@H]2C(=O)C[C@H]3[C@@H]4CC[C@H](C)[C@]23CC4(C)C)[C@H]2[C@@H]3CC[C@H](C)[C@]12CC3(C)C [ALERTENONE]	45 (≈ 103 µM)	–	> 100	40 (≈ 91.6 µM)	35 (≈ 80.2 µM)	40 (≈ 91.6 µM)	40 (≈ 91.6 µM)	40 (≈ 91.6 µM)	–	35 (≈ 80.2 µM)	35 (≈ 80.2 µM)	45 (≈ 103 µM)
